Test results as given in PMC12549899 (Nature Communications, 2025).
Values joined by “and” are separate entries in the source; they are usually repeats but may differ in a detail not shown here. Equal entries are not always repeated.

Molecular target: T1, DrOTOP1 L385W (Danio rerio, UniProt Q7ZWK8, L385W)
T1 construct: A previously generated codon-optimized full-length DrOTOP1[8]; (UniProt: Q7ZWK8) construct; expressed in transfected cells; host or cells: HEK-293 (CRL-1573, ATCC)
T1 sequence (Q7ZWK8 1-586 L385W): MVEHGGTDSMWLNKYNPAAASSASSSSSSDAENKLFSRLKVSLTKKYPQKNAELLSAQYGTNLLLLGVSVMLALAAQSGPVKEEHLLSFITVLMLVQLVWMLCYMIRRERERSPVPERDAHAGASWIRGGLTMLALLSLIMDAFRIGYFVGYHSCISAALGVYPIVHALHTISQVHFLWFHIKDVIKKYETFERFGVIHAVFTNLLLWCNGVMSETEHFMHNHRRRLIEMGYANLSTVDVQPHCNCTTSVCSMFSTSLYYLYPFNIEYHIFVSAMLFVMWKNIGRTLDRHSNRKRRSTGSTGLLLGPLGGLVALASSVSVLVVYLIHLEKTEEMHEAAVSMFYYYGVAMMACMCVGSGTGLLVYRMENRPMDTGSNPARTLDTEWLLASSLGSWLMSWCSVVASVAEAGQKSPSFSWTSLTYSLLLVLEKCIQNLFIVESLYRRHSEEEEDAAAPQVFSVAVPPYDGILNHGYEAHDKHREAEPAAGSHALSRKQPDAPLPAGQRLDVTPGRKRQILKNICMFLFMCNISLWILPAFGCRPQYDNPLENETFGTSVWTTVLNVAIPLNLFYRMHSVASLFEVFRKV
Assay: Whole-cell patch-clamp, inhibition of acid-evoked currents, DrOTOP1 L385W
Assay type: cell-based, zebrafish (Danio rerio)
Conditions: single cells or mean; for Inhibition of currents: 10 µM
From the text: To functionally test the significance of the two binding sites identified by cryo-EM, we generated point mutations of DrOTOP1 using the binding poses and conformational changes observed in DrOTOP1_C2.2 to guide our mutations. As per the binding pose that best fits our cryo-EM density, C2.2 forms the following interactions in the outer site: hydrophobic packing against many non-polar residues W126, G130, M133, L134, F271, F570, and M573, and π-stacking with W532 (Fig. 5A). In addition, C2.2 could potentially form H-bonds with E267, if the sidechain is protonated or a water bridge is present, and with H574 if it moves closer (Fig. 5A). Likewise, C2.36 presents a heterocyclic nitrogen that can potentially form a H-bond with E267, similarly, provided a protonation or water bridge is present (Fig. 5B). In addition, C2.36 forms a T-shaped π-stacking interaction with H574, whose sidechain has rotated 90 degrees (compared to DrOTOP1_apo), presumably to accommodate the interaction (Fig. 5B). Considering other inhibitors discovered from the second round of screening, many contain functional groups like the carbonyl groups of Group 1 molecules and the heterocyclic nitrogen atoms of Group 2 molecules (Supplementary Fig. 3E), that can potentially form similar H-bonds with E267 as C2.2 and C2.36, assuming the binding modes are similar. In the central site, C2.2 binds with the following interactions: hydrophobic packing with residues V201, F271, A274, V278, and A388, π-stacking with F277, and H-bonding with E384 (Fig. 5C).
We next tested mutations of the central site (L205W, A274W, F277A, E384A L385W, A388W). V201W and S389W, two additional central site mutations, were excluded from the study due to complete loss of channel activity. […]
Whole-cell patch-clamp recording was performed as previously described[6],[22],[25]. Recordings were made with an Axopatch 200B amplifier, digitized with a Digidata 1322a 16-bit data acquisition system, acquired with pClamp 8.2 and analyzed with Clampfit 10 (Molecular Devices). […]

C=C(C)COc1ccccc1NC(=O)c1nc[nH]c1C [C2.2]
Inhibition of currents (mean): 74.03% | Inhibition of currents (single cells): 74.8228% and 76.1135% and 70.5882% and 77.6399% | inhibition at 10 µM: 71%
